Experimental data published in patent US6548555B1, “Basic drug compositions with enhanced bioavailability” (Pfizer Inc, priority 1999, dated 2003).

Legend:
[1] = HPMCAS dispersions, dissolution tests at pH 4.0; cited from earlier work
[2] = Dissolution test by microcentrifuge method, Example 6; type: physicochemical; settings: 37° C., 2.7 mg drug, 3.6 mg polymer or none, 1.8 mL
Method: Dissolution performance was measured at 37° C. using a microcentrifuge method. For these tests, 2.7 mg drug in 0.9 mLs 25% gastric solution/75% HPLC water was added to each of 6 microcentrifuge tubes. At time 0, 0.9mLs 2×PBS without polymer was added to tubes 1 and 2, and 0.9 mLs 2×PBS containing 3.6 mg HPMCAS-MF or cellulose acetate trimellitate (CAT) was added to tubes 3 and 4, or 5 and 6. Samples were taken after 4, 10, 20, 40, 90, and 180 minutes, analyzed by HPLC, and compound concentrations were calculated. Gastric solution is 84 mM HCl, 34 mM NaCl, pH 1.2. PBS is phosphate buffered saline: 20 mM sodium phosphate, 4.7 mM potassium phosphate, 8.2 mM NaCl, 0.2 mM KCl, pH 6.5. “2×PBS” is a solution in which the components of PBS are present at 2-fold higher concentration.

[3] = Solubility of the Example 6 drug at pH 2 and pH 6.8; type: physicochemical; settings: thermodynamic from solid
Method: A test drug is dissolved in a pH 1-2 environment, typically aqueous deionized distilled water adjusted to a target pH within the aforesaid pH 1-2 range by adding an appropriate amount of hydrochloric acid. The amount of drug added is an amount sufficient to saturate the aqueous test medium. The test medium can be agitated, typically gently, by means of a stirring bar, overhead stirrer, or the like. Typically the test medium is left to sit (while being agitated) for several hours, typically overnight. The sample can then be filtered or centrifuged as previously described, and solubility in the filtrate or supernate can then be measured by determining the concentration with any suitable means of detection appropriate to the drug. Likewise, the solubility is also determined at pH 5 to 7. If the drug's pH 1-2 solubility is 3- or more-fold its pH 5-7 solubility, then the drug will benefit from this invention.

Structure (SMILES) | supersaturated concentration relative to crystalline MAT [1] [fold] | Drug Conc ([2]; 4 min after adding 2xPBS to drug in 25% gastric solution) [µg/mL] | Drug Conc ([2]; 10 min after adding 2xPBS to drug in 25% gastric solution) [µg/mL] | Drug Conc ([2]; 20 min after adding 2xPBS to drug in 25% gastric solution) [µg/mL] | Drug Conc ([2]; 40 min after adding 2xPBS to drug in 25% gastric solution) [µg/mL] | Drug Conc ([2]; 90 min after adding 2xPBS to drug in 25% gastric solution) [µg/mL] | Drug Conc ([2]; 180 min after adding 2xPBS to drug in 25% gastric solution) [µg/mL] | solubility ([3]; deionized distilled water adjusted with hydrochloric acid, pH 2, simulated gastric fluid) [mg/mL] | solubility ([3]; pH 6.8, aqueous buffer) [mg/mL]
CCC1OC(=O)CC(O)C(C)C(OC2OC(C)C(OC3CC(C)(O)C(OC(=O)Cc4ccc(OC)cc4)C(C)O3)C(N(C)C)C2O)C(CC=O)CC(C)C(=O)C=CC(C)=CC1COC1OC(C)C(O)C(OC)C1OC (stereo not drawn) [MAT, 4″-O-(4-methoxyphenyl)acetyltylosin] | 9 | – | – | – | – | – | – | – | –
CN1CCN(c2ccccc2/C=C2\SCCN(c3ccc(Cl)c(Cl)c3)C2=O)CC1.Cl.O [Z-4-(3,4-dichlorophenyl)-2-[2-(4-methylpiperazin-1-yl)-benzylidene]-thiomorpholin-3-one hydrochloride monohydrate] | – | 518 | 459 | 432 | 317 | 263 | 204 | 3 | 0.012
